Key:
Assay in all cases: KINOMEscan competition binding
Settings in all cases: compound 10.0 µM
[1] = biological target: PRKD3 (human) (UniProt O94806)
[2] = biological target: ADCK4 (human) (UniProt Q96D53)
[3] = biological target: PRKACB (human) (UniProt P22694)
[4] = tested on: EGFR (human), P00533 [T790M/L858R]
[5] = biological target: MAP4K2 (human) (UniProt Q12851)
[6] = biological target: DDR2 (human) (UniProt Q16832)
[7] = biological target: IRAK1 (human) (UniProt P51617)
[8] = biological target: VRK2 (human) (UniProt Q86Y07)
[9] = tested on: ABL1 (human), P00519 [M351T]
[10] = biological target: CDC2L2 (human) (UniProt Q9UQ88)
Sequence of CDC2L2 (human) (Q9UQ88 whole entry, looked up): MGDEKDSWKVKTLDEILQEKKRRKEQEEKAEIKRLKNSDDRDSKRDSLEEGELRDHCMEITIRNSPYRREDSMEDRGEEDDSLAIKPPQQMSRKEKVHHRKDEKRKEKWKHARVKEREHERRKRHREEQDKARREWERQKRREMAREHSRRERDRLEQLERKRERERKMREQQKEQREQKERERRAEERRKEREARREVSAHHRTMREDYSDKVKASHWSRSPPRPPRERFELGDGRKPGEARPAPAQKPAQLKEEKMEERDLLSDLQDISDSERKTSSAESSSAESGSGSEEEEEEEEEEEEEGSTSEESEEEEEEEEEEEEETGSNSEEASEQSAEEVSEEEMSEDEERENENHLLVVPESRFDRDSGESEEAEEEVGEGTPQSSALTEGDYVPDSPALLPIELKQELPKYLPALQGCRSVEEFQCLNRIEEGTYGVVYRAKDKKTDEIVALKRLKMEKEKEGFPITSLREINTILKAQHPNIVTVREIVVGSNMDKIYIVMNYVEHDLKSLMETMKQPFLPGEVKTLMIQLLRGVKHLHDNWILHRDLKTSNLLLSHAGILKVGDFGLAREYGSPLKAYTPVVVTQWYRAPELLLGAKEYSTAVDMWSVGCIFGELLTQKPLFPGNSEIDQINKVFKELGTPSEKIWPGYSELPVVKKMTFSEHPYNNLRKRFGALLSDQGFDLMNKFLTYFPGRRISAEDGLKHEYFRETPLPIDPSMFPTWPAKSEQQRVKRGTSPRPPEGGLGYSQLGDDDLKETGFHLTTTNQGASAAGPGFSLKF

[11] = biological target: EPHB6 (human) (UniProt O15197)
Sequence of EPHB6 (human) (O15197 whole entry, looked up): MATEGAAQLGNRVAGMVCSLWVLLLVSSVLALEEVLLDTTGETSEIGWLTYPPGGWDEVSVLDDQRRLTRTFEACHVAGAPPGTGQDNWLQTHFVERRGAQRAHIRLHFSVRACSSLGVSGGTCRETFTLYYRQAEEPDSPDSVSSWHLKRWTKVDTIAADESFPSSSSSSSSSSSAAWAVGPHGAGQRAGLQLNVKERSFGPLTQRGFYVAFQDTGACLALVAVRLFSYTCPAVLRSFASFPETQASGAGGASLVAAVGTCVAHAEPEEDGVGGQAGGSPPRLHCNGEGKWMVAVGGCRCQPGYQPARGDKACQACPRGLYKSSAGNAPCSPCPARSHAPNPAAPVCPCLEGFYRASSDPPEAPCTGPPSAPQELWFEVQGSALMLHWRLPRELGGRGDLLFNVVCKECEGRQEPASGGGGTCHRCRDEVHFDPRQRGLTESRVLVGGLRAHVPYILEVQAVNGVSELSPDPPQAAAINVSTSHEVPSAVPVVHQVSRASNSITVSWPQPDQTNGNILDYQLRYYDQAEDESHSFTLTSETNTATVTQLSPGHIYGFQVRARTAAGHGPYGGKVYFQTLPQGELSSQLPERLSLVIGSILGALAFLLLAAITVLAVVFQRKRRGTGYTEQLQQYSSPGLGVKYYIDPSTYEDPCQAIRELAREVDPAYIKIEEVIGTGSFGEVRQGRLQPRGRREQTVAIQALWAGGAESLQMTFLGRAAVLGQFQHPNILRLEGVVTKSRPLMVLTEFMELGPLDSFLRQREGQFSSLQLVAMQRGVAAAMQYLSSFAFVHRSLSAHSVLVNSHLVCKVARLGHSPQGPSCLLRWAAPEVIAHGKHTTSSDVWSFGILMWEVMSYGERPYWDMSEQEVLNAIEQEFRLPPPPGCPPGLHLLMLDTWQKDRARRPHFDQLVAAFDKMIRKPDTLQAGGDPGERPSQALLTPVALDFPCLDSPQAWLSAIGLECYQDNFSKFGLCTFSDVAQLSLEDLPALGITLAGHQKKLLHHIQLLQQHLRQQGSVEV

[12] = biological target: MYO3B (human) (UniProt Q8WXR4)
[13] = biological target: PAK7 (human) (UniProt Q9P286)
[14] = biological target: RPS6KA6 KD2 (human) (UniProt Q9UK32)
Sequence of RPS6KA6 KD2 (human) (Q9UK32 whole entry, looked up): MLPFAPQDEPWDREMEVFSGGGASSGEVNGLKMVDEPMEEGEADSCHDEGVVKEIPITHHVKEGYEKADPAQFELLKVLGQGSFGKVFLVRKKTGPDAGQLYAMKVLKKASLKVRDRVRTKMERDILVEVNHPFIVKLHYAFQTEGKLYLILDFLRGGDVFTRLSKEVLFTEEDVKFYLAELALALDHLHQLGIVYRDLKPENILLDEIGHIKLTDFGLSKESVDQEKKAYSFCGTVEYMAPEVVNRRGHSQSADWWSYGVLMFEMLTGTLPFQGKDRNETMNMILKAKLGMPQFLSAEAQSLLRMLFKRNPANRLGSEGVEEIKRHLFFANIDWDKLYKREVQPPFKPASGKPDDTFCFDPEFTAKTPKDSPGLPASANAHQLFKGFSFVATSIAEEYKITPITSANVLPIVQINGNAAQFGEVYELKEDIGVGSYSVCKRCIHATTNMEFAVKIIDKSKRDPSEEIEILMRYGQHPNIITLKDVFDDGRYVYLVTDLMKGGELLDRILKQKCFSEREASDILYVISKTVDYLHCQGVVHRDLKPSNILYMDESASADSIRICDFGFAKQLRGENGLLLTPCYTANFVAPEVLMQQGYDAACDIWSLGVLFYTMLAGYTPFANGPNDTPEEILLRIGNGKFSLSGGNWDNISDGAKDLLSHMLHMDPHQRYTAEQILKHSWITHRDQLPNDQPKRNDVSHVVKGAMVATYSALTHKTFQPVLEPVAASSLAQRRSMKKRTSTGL

[15] = biological target: IRAK3 (human) (UniProt Q9Y616)
[16] = biological target: CDK4 CCND3 (human) (UniProt P11802+P30281)
[17] = biological target: MARK1 (human) (UniProt Q9P0L2)
[18] = biological target: RPS6KA4 KD2 (human) (UniProt O75676)
[19] = biological target: BLK (human) (UniProt P51451)
Sequence of BLK (human) (P51451 whole entry, looked up): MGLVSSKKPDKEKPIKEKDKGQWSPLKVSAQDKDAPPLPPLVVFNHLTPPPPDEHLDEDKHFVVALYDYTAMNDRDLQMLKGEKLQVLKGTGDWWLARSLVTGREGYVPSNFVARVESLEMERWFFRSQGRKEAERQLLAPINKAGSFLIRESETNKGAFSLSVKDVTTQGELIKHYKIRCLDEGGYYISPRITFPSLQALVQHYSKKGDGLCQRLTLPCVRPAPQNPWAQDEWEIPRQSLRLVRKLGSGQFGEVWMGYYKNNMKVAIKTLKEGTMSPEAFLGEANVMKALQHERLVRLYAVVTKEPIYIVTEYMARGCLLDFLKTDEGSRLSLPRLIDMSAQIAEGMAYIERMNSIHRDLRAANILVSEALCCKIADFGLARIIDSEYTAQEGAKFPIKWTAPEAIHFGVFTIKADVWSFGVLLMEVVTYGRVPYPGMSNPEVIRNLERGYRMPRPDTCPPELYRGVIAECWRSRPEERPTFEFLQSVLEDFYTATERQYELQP

[20] = biological target: MATK (human) (UniProt P42679)
Sequence of MATK (human) (P42679 whole entry, looked up): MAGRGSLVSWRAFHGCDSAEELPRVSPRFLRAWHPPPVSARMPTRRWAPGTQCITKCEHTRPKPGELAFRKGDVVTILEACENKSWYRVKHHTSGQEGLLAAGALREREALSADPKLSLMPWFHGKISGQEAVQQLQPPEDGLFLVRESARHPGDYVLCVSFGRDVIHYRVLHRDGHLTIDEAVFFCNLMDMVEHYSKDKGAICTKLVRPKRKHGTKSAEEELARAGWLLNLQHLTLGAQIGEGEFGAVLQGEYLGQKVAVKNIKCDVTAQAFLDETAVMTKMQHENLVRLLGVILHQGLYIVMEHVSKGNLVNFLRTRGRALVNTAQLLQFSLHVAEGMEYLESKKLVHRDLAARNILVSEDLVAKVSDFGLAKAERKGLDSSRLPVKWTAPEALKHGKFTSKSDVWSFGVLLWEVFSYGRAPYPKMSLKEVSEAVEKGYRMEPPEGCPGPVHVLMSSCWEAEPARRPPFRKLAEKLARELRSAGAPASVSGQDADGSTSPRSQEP

[21] = biological target: EPHA2 (human) (UniProt P29317)
[22] = biological target: PIP5K1A (human) (UniProt Q99755)
[23] = tested on: BRAF (human), P15056 [V600E]
[24] = biological target: CDKL5 (human) (UniProt O76039)
[25] = biological target: OXSR1 (human) (UniProt O95747)
[26] = biological target: CDK17 (human) (UniProt Q00537)
[27] = biological target: MET (human) (UniProt P08581)
[28] = biological target: TNK2 (human) (UniProt Q07912)
[29] = tested on: KIT (human), P10721 [D816V]
[30] = biological target: FGR (human) (UniProt P09769)
[31] = biological target: KDR (human) (UniProt P35968)
[32] = biological target: MAPK4 (human) (UniProt P31152)
[33] = biological target: TEK (human) (UniProt Q02763)
[34] = biological target: HIPK4 (human) (UniProt Q8NE63)
Sequence of HIPK4 (human) (Q8NE63 whole entry, looked up): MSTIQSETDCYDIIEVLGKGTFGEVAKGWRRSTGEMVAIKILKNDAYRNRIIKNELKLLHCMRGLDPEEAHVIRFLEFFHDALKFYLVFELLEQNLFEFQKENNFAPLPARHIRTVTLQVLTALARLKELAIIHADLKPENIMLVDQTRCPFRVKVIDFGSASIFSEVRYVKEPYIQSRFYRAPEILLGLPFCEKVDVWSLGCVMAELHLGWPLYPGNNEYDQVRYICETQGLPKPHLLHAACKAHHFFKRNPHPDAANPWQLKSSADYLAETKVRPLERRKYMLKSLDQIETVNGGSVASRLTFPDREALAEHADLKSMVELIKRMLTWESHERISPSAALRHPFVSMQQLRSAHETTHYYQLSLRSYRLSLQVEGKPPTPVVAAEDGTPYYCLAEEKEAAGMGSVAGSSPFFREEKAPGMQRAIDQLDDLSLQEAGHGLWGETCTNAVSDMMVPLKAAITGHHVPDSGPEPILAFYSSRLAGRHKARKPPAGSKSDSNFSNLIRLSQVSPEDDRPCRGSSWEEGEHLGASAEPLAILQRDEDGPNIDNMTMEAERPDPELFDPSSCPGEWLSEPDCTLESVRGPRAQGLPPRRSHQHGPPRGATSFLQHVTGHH

[35] = biological target: CAMKK2 (human) (UniProt Q96RR4)
[36] = biological target: WEE2 (human) (UniProt P0C1S8)
[37] = biological target: MAP3K3 (human) (UniProt Q99759)
[38] = biological target: EGFR (human) (UniProt P00533)
[39] = tested on: FLT3 (human), P36888 [ITD]
[40] = biological target: MKNK2 (human) (UniProt Q9HBH9)
[41] = biological target: DCLK1 (human) (UniProt O15075)
[42] = biological target: MAP2K6 (human) (UniProt P52564)

Sequence of PRKD3 (human) (O94806 whole entry, looked up): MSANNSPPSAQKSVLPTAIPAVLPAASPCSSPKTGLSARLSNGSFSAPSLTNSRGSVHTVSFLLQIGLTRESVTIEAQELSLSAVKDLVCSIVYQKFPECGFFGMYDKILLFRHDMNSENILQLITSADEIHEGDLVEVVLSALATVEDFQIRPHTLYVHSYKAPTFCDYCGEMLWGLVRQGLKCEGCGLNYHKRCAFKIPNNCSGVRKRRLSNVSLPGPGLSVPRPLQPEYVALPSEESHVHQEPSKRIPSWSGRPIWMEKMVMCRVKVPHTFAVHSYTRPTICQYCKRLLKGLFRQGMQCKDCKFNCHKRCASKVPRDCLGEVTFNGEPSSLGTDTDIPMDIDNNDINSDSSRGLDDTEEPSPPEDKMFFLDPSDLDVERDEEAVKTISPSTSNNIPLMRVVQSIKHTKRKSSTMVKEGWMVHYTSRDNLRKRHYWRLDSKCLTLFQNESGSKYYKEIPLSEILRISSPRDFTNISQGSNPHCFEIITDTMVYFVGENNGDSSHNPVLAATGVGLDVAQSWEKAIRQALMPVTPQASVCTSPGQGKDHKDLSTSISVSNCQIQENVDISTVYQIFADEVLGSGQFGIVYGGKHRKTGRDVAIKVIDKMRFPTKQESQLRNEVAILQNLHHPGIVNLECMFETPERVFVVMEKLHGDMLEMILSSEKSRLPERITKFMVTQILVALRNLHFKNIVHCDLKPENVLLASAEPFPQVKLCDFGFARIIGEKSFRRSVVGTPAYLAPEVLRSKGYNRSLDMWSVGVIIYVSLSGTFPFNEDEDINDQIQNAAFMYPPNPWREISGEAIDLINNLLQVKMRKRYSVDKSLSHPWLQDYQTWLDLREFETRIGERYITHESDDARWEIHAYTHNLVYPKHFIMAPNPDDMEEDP

Cc1cc([C@@H](C)Nc2ccccc2C(=O)O)c2nc(N3CCOCC3)cc(=O)n2c1
kinase still bound, per cent of control [1]: 85% | kinase still bound, per cent of control [2]: 95% | kinase still bound, per cent of control [3]: 62% | kinase still bound, per cent of control [4]: 100% | kinase still bound, per cent of control [5]: 97% | kinase still bound, per cent of control [6]: 100% | kinase still bound, per cent of control [7]: 100% | kinase still bound, per cent of control [8]: 83% | kinase still bound, per cent of control [9]: 100% | kinase still bound, per cent of control [10]: 100% | kinase still bound, per cent of control [11]: 40% | kinase still bound, per cent of control [12]: 51% | kinase still bound, per cent of control [13]: 92% | kinase still bound, per cent of control [14]: 71% | kinase still bound, per cent of control [15]: 75% | kinase still bound, per cent of control [16]: 62% | kinase still bound, per cent of control [17]: 90% | kinase still bound, per cent of control [18]: 83% | kinase still bound, per cent of control [19]: 100% | kinase still bound, per cent of control [20]: 57% | kinase still bound, per cent of control [21]: 99% | kinase still bound, per cent of control [22]: 100% | kinase still bound, per cent of control [23]: 80% | kinase still bound, per cent of control [24]: 82% | kinase still bound, per cent of control [25]: 80% | kinase still bound, per cent of control [26]: 100% | kinase still bound, per cent of control [27]: 95% | kinase still bound, per cent of control [28]: 100% | kinase still bound, per cent of control [29]: 100% | kinase still bound, per cent of control [30]: 76% | kinase still bound, per cent of control [31]: 100% | kinase still bound, per cent of control [32]: 82% | kinase still bound, per cent of control [33]: 94% | kinase still bound, per cent of control [34]: 56% | kinase still bound, per cent of control [35]: 72% | kinase still bound, per cent of control [36]: 100% | kinase still bound, per cent of control [37]: 77% | kinase still bound, per cent of control [38]: 100% | kinase still bound, per cent of control [39]: 40% | kinase still bound, per cent of control [40]: 100% | kinase still bound, per cent of control [41]: 100% | kinase still bound, per cent of control [42]: 91%
